The results in this text go back to patent publication US5811444A, “Compositions for reducing abnormal stimulation of endothelin receptors and novel compounds” (Roussel Uclaf, priority 1994, dated 1998).

One test concerns the target T1, B receptor of endothelin (Rattus norvegicus, UniProt P21451).
T1 construct: A membrane preparation is produced from the posterior cortex plus cerebellum of a rat; from tissue; host or cells: rat posterior cortex plus cerebellum, membranes
T1 sequence (P21451 27-442): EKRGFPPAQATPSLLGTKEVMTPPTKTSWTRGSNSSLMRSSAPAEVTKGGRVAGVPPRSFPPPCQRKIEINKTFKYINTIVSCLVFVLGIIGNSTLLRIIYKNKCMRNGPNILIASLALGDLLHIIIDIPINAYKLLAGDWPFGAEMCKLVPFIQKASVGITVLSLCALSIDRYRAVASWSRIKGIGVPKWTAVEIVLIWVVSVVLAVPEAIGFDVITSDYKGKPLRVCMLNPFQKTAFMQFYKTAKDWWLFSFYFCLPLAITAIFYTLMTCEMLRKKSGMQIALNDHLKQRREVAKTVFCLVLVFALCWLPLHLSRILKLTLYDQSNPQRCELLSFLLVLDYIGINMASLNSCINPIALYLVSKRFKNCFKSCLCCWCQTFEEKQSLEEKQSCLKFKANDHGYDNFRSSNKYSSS
Nature of the test: Study of the activity on the B receptor of endothelin (displacement of 125I Endothelin, rat posterior cortex plus cerebellum membranes). As to conditions: 25 °C, 60 minutes, pH 7.4, read-out: B receptor of endothelin IC/50. It counts as binding. On the procedure:
STUDY OF THE ACTIVITY ON THE B RECEPTOR OF ENDOTHELIN
A membrane preparation is produced from the posterior cortex plus cerebellum of a rat. The tissue is ground up in a POLYTRON in a 50 mM Tris buffer pH=7.4.
After 30 minutes at 25° C. (W.B.) the homogenate is centrifuged at 30000 g for 15 minutes (2 centrifugations with intermediate take-up in the Tris buffer pH. 7.4).
(§1) The pellets are resuspended in an incubation buffer (25 mM Tris, 5 microg/ml pepstatin A, 3 microg/ml aprotinin, 0.1 mM PMSF, 3 mM EDTA, 1 mM EGTA pH 7.4).
(§2) 2 ml aliquots are distributed into hemolysis tubes and ^125 I Endothelin (approximately 50000 dpm/tube) and the product to be studied are added. (The product is first tested at 3×10^-5 M three times). When the tested product displaces more than 50% of the radioactivity specifically bound to the receptor, it is tested again according to a range of 7 concentrations so as to determine the concentration which inhibits the radioactivity specifically bound to the receptor by 50%. In this way the 50% inhibitory concentration is determined.
(§3) The non-specific bond is determined by the addition of 10^-6 M endothelin (three times). After incubation at 25° C. for 60 minutes, putting back in the water bath at 0° C., for 5 minutes, filtering under reduced pressure, rinsing with Tris buffer 7.4, the radioactivity is counted in the presence of scintillating Triton. […]
(In general: In a radioligand displacement assay an active substance lowers the binding of a labelled ligand.)

Another test deals with T2, A receptor of endothelin (Rattus norvegicus, UniProt P26684).
T2 construct: A membrane preparation is produced from the heart (ventricles) of a rat; from tissue; host or cells: rat heart ventricles, membranes
T2 sequence (P26684 21-426): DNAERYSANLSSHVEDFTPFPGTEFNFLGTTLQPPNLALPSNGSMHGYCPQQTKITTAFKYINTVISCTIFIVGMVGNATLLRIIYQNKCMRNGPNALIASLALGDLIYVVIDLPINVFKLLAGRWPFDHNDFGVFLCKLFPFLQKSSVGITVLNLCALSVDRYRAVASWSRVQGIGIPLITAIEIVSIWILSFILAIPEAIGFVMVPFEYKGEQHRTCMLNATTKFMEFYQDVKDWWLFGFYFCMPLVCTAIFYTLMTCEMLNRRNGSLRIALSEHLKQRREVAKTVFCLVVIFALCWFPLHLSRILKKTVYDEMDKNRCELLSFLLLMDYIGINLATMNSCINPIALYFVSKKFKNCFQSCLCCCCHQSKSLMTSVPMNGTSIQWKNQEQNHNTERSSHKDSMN
Nature of the test: Study of the activity on the A receptor of endothelin (displacement of 125I Endothelin, rat heart ventricle membranes). It counts as binding. The conditions noted are these: rat heart (ventricles) membranes, 25 °C, 60 minutes, pH 7.4, read-out: A receptor of endothelin IC/50. On the procedure: STUDY OF THE ACTIVITY ON THE A RECEPTOR OF ENDOTHELIN
A membrane preparation is produced from the heart (ventricles) of a rat. The tissue is ground up in a POLYTRON in a 50 mM Tris buffer pH=7.4.
After 30 minutes at 25° C. (W.B.) the homogenate is centrifuged at 30000 g for 15 minutes (2 centrifugations with intermediate take up in the Tris buffer pH. 7.4).
as §1, §2, §3

pIC50: −log10 of the molar value.

Take `CCCCc1nc(S(=O)(=O)c2ccc(OC)cc2)c(C(=O)O)n1Cc1cc2c(cc1Cl)OCO2` [Example 10, 2-butyl-1-((6-chloro-1,3-benzodioxol-5-yl)methyl)-4-((4-methoxyphenyl)sulphonyl)-1H-imidazole-5-carboxylic acid]: the results for the pIC50 at B receptor of endothelin and at A receptor of endothelin were 6.60 and 7.04, respectively.
For `COc1ccc(Sc2nc(C)n(Cc3cc4c(cc3Cl)OCO4)c2C(=O)O)cc1` [Example 21, 1-((6-chloro-1,3-benzodioxol-5-yl)methyl)-4-((4-methoxyphenyl)thio)-2-methyl-1H-imidazole-5-carboxylic acid], the pIC50 at B receptor of endothelin was 6.46; at A receptor of endothelin it was 6.96.
